Biological target: T1, Angiotensin II type-1 receptor (AT1) (Homo sapiens, UniProt P30556)
T1 construct: gene AGTR1
T1 sequence (P30556 1-359): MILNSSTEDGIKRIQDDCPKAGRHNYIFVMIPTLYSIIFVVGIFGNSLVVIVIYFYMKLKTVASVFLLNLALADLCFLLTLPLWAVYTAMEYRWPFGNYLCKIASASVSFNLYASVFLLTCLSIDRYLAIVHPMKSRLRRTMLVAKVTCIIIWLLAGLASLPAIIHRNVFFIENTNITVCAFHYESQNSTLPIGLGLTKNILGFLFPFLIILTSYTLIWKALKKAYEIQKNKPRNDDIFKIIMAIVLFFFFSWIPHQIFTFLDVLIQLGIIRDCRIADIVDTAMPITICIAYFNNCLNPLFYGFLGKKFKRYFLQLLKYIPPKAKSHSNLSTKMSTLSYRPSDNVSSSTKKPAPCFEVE
Test: FLIPR calcium influx assay in HEK293/Ga15/AT1 cells, angiotensin II stimulated
Type: cell-based

## Cc1cc(OC(=O)c2c(C)cc(OC(=O)c3c(C)cc(O)cc3O)cc2O)cc(O)c1C(=O)O [gyrophoric acid]
  IC50: 29.8 µM
